These are literature values, as cited in patent US20070098804A1, “Solid particulate tadalafil having a bimodal particle size distribution” (priority 2005, published 2007).

The structures appear in SMILES notation.

The conditions of the series: crystalline solid, reported in the PDR.

In the case of `CN1CC(=O)N2[C@H](c3ccc4c(c3)OCO4)c3[nH]c4ccccc4c3C[C@@H]2C1=O` [Tadalafil], the solubility in water entry is reported as “practically insoluble in water”.
